Consider 52 molecules from patent US11117899B2, “[1,2,4]triazolo[1,5-c]pyrimidine derivative as A2A receptor inhibitor” (MEDSHINE DISCOVERY INC., priority 2017, dated 2021).

pIC50: −log10 of the molar value.

T1 sequence (P29274 whole entry): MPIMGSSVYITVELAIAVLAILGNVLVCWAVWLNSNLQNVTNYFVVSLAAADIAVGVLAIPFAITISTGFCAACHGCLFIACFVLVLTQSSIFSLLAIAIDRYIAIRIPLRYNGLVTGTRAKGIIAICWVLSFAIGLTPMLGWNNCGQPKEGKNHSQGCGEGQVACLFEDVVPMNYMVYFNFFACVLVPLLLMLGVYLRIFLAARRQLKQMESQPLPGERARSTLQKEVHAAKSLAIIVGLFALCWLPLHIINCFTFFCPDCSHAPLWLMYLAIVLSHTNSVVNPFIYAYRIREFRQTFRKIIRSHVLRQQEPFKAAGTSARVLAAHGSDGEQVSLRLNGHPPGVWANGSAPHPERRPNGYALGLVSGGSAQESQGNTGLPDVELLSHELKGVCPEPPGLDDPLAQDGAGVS

The experiment has as its target T1, Human adenosine A2A receptor (Homo sapiens, UniProt P29274).
T1 construct: host or cells: CHO
In words: Human adenosine A2A receptor calcium flux assay. The format is cell-based. The note with it: A2A stable CHO cell strain, antagonist mode against agonist NECA at EC80, FLIPR Fluo-4. The protocol: Human adenosine A2A receptor calcium flux assay
A2A stable cell strain was constructed by Shanghai WuXi PharmaTech, and the host cell was CHO.
Fluo-4 Direct Kit (Invitrogen, Cat. No. F10471). After the fluorescent detection reagent (specifically binding to calcium ions and causing an increase in fluorescence signal) in the kit was incubated with the cells for a suitable period of time, the compound was added to stimulate the cells to cause changes in intracellular calcium flux, thereby causing changes in the fluorescent signal, which can reflect the strength of the agonistic or inhibitory activity of the compound.
F12+10% fetal bovine serum+geneticin 300 ug/ml+blasticidin 2 ug/ml Compound dilution buffer:
Hanks Balanced Salt Buffer (Invitrogen)+20 mM HEPES, configured before each use
The test compounds were dissolved in DMSO to prepare 10 mM stock solutions. The test compounds were diluted to 0.2 mM with DMSO, and the reference compound CGS-15943 was diluted to 0.015 mM with DMSO. Next, 10 points of three-fold serial dilutions were made with ECHO. 900 nl was transferred to the compound plate (Greiner-781280), and 30 ul of compound dilution buffer was added. The final starting concentration of the test compounds was 1 uM and CGS-15943 was 0.075 uM.
Cryopreserved A2A cells were resuscitated, and then resuspended in culture medium to 1×10^6 cells/ml. The suspension was seeded into 384-well polylysine-coated cell plates (Greiner-781946) at 20 μl/well and incubated overnight in a 5% CO2 incubator at 37° C.
The cell plate prepared the day before was taken out from the incubator, and 20 ul of 2× Fluo-4 Direct™ buffer was added to each well. The plate was incubated for 50 minutes in a 5% CO2 incubator at 37° C. and allowed to stand at room temperature for 10 minutes.
Dilution of agonist NECA: 10 points of three-fold serial dilutions were made with Echo for NECA from a starting concentration of 0.15 mM. 900 nL was then transferred to the corresponding compound plate; and then 30 μl of compound dilution buffer was added to the corresponding compound plate. The final starting concentration was 750 nM.
FLIPR instrument software was run. According to the programmed procedure, 10 ul of compound dilution buffer was added to the cell plate and the fluorescence signal was read. 10 ul of the agonist reference compound at the indicated concentration was then added to the cell plate and the fluorescent signal was read. After reading, the data was exported by the “Max-Min”, “Read 90 to Maximum allowed” method in the software, and the EC80 of the A2A cell line was calculated. The agonist was prepared at a concentration of 6× EC80. A 6× EC80 concentration of a reference compound agonist of the corresponding cells was prepared with a buffer solution, and added at 30 ul/well to the corresponding compound plate for use.
FLIPR instrument software was run. According to the programmed procedure, 10 μl of the test compounds and reference compound at an indicated concentration was added to the cell plate and the fluorescence signal was read. 10 ul of the reference compound agonist at a concentration of 6× EC80 was then added to the cell plate and the fluorescent signal was read. For the agonist detection of the compounds, the data was exported by the “Max-Min”, “Read 1 to 90” method in the software. For the antagonist detection of the compound, the data was exported by the “Max-Min”, “Read 90 to Maximum allowed” method in the software. Data were analyzed by GraphPad Prism 5.0 and the IC50 values of the test compounds were calculated.
In general terms: Calcium flux is commonly read through the fluorescence of an indicator in the cells.
One may read the pIC50 as the negative decadic logarithm of the IC50, by convention in mol/L. With `Cc1cc(-c2c(-c3ccccc3)nc(N)n3nc(C(=O)NCc4ccc(F)cc4F)nc23)cc(C)n1` [Example C-18], the pIC50 is 8.62.

For the molecule `Cc1cc(-c2c(-c3ccccc3)nc(N)n3nc(CNC4CC4)nc23)cc(C)n1` [Example C-20], the negative-log IC50 (pIC50) is 8.92.

Turning to `Cc1cc(-c2c(-c3ccccc3)nc(N)n3nc(C)nc23)cc(Cl)n1` [Example C-21], the pIC50 was 9.10.

Consider `Cc1nc2c(-c3ccc4[nH]nnc4c3)c(-c3ccccc3)nc(N)n2n1` [Example C-22], for which the pIC50 was 8.53.

As to `Nc1nc(-c2ccccc2)c(-c2ccc3[nH]nnc3c2)c2nc(COCc3ccccc3)nn12` [Example C-23], the negative logarithm of the IC50 (pIC50) is 8.58.

Turning to `Nc1nc(-c2ccccc2)c(-c2ccc3[nH]nnc3c2)c2nc(CO)nn12` [Example C-24], the negative-log IC50 (pIC50) is 9.02.

Consider `CCc1nc2c(-c3ccc4[nH]nnc4c3)c(-c3ccccc3)nc(N)n2n1` [Example C-25], for which the negative-log IC50 (pIC50) was 8.50.

As for `Nc1nc(-c2ccccc2)c(-c2ccc3[nH]nnc3c2)c2nc(C3CC3)nn12` [Example C-26], the pIC50 was 8.36.

As for `COc1ccccc1-c1nc(N)n2nc(C)nc2c1-c1cc(C)nc(C(F)(F)F)c1` [Example C-27], the pIC50 was 8.31.

Regarding `Nc1nc(-c2ccccc2)c(-c2ccc3[nH]nnc3c2)c2nc(C(F)(F)F)nn12` [Example C-29], the pIC50 was 8.82.

In the case of `CCc1nc2c(-c3cc(C)nc(C(F)(F)F)c3)c(-c3ccccc3OC)nc(N)n2n1` [Example C-30], the pIC50 is 8.52.

As to `COc1ccccc1-c1nc(N)n2nc(C(F)(F)F)nc2c1-c1cc(C)nc(C(F)(F)F)c1` [Example C-31], the pIC50 is 7.85.

For `CCc1nc2c(-c3ccc4nn[nH]c4c3)c(-c3ccccc3OC)nc(N)n2n1` [Example C-32], the pIC50 is 7.41.

As for `Nc1nc(-c2ccc(F)cc2F)c(-c2ccc3[nH]nnc3c2)c2nc(C(F)(F)F)nn12` [Example C-34], the pIC50 was 7.13.

With `CCc1nc2c(-c3cc(C)nc(C(F)(F)F)c3)c(-c3ccccc3F)nc(N)n2n1` [Example C-35], the pIC50 was 8.38.

For the molecule `CCc1nc2c(-c3cc(C)nc(C(F)(F)F)c3)c(-c3ccc(F)cc3F)nc(N)n2n1` [Example C-36], the negative-log IC50 (pIC50) is 8.10.

For the molecule `CCc1nc2c(-c3ccc4nn[nH]c4c3)c(-c3ccccc3F)nc(N)n2n1` [Example C-37], the pIC50 was 8.33.

Take `CCc1nc2c(-c3ccc4nn[nH]c4c3)c(-c3ccc(F)cc3F)nc(N)n2n1` [Example C-38]: the negative logarithm of the IC50 (pIC50) was 7.82.

Turning to `COc1cc(F)ccc1-c1nc(N)n2nc(C)nc2c1-c1cc(C)nc(C(F)(F)F)c1` [Example C-39], the pIC50 was 7.96.

As to `Cc1cc(-c2c(-c3ccc(F)cc3)nc(N)n3nc(C(F)(F)F)nc23)cc(C(F)(F)F)n1` [Example C-40], the negative logarithm of the IC50 (pIC50) is 7.35.

Turning to `Nc1nc(-c2ccc(F)cc2)c(-c2ccc3[nH]nnc3c2)c2nc(C(F)(F)F)nn12` [Example C-42], the pIC50 was 8.00.

Regarding `Cc1cc(-c2c(-c3ccc(F)cc3)nc(N)n3nc(CO)nc23)cc(Cl)n1` [Example C-44], the negative-log IC50 (pIC50) is 9.17.

Regarding `Nc1nc(-c2ccc(F)cc2)c(-c2ccc3nn[nH]c3c2)c2nc(CO)nn12` [Example C-45], the negative-log IC50 (pIC50) was 8.69.

`Cc1cc(-c2c(-c3ccc(C)o3)nc(N)n3nc(C(F)(F)F)nc23)cc(C(F)(F)F)n1` [Example C-47]: the pIC50 is 7.87.

For the molecule `Cc1ccc(-c2nc(N)n3nc(C(F)(F)F)nc3c2-c2ccc3[nH]nnc3c2)o1` [Example C-48], the pIC50 is 7.95.

Regarding `Cc1nc2c(-c3ccc4[nH]nnc4c3)c(-c3ccc(F)cc3F)nc(N)n2n1` [Example C-49], the pIC50 is 7.30.

For the molecule `COc1ccccc1-c1nc(N)n2nc(CO)nc2c1-c1cc(C)nc(C(F)(F)F)c1` [Example C-50], the negative-log IC50 (pIC50) was 8.27.

Regarding `Cc1cc(-c2c(-c3ccc(F)cc3F)nc(N)n3nc(C)nc23)cc(C(F)(F)F)n1` [Example C-51], the pIC50 is 7.87.

As to `Cc1cc(-c2c(-c3ccccc3F)nc(N)n3nc(CO)nc23)cc(C(F)(F)F)n1` [Example C-52], the pIC50 is 8.76.

With `Cc1cc(-c2c(-c3ccc(F)cc3F)nc(N)n3nc(CO)nc23)cc(C(F)(F)F)n1` [Example C-53], the pIC50 is 8.11.

As to `Cc1cc(-c2c(-c3ccc(F)cc3)nc(N)n3nc(C)nc23)cc(Cl)n1` [Example C-54], the pIC50 is 8.97.

On to `Cc1cc(-c2c(-c3ccc(F)cc3)nc(N)n3nc(CO)nc23)cc(C)n1` [Example C-55], for which the pIC50 is 9.07.

Take `Cc1nc2c(-c3ccc4[nH]nnc4c3)c(-c3ccc(F)cc3)nc(N)n2n1` [Example C-59]: the pIC50 is 8.00.

For the molecule `Cc1cc(-c2c(-c3ccc(F)cc3)nc(N)n3nc(C#N)nc23)cc(C)n1` [Example C-62], the negative-log IC50 (pIC50) is 9.08.

On to `Cc1cc(-c2c(-c3ccn(C)n3)nc(N)n3nc(C(F)(F)F)nc23)cc(C(F)(F)F)n1` [Example C-63], for which the pIC50 is 8.14.

As for `Cc1cc(-c2c(-c3ccn(C)n3)nc(N)n3nc(C)nc23)cc(C(F)(F)F)n1` [Example C-64], the negative-log IC50 (pIC50) is 9.44.

Turning to `Cc1cc(-c2c(-c3ccc(F)cc3)nc(N)n3nc(CN(C)C)nc23)cc(Cl)n1` [Example C-65], the pIC50 was 9.08.

On to `Cc1cc(-c2c(-c3ccc(C)o3)nc(N)n3nc(CO)nc23)cc(C(F)(F)F)n1` [Example C-66], for which the negative-log IC50 (pIC50) was 9.10.

In the case of `Cc1cc(-c2c(-c3ccc(C)o3)nc(N)n3nc(CO)nc23)cc(Cl)n1` [Example C-67], the negative-log IC50 (pIC50) is 9.59.

As for `COCCOCc1nc2c(-c3cc(C)nc(C(F)(F)F)c3)c(-c3ccc(F)cc3)nc(N)n2n1` [Example C-68], the negative logarithm of the IC50 (pIC50) is 9.19.

As to `COCCOCc1nc2c(-c3cc(C)nc(Cl)c3)c(-c3ccc(F)cc3)nc(N)n2n1` [Example C-69], the pIC50 was 7.27.

In the case of `Cc1cc(-c2c(-c3ccc(F)cc3)nc(N)n3nc(CO[C@H]4CCOC4)nc23)cc(Cl)n1` [Example C-70], the negative-log IC50 (pIC50) was 9.23.

`Cc1cc(-c2c(-c3ccc(F)cc3)nc(N)n3nc(CO[C@H]4CCOC4)nc23)cc(C(F)(F)F)n1` [Example C-71]: the negative logarithm of the IC50 (pIC50) is 9.09.

Regarding `Cc1cc(-c2c(-c3ccc(C)o3)nc(N)n3nc(CO[C@H]4CCOC4)nc23)cc(C(F)(F)F)n1` [Example C-72], the negative logarithm of the IC50 (pIC50) is 9.80.

With `Cc1cc(-c2c(-c3ccc(F)cc3)nc(N)n3nc(C#N)nc23)cc(Cl)n1` [Example C-73], the pIC50 was 8.76.

On to `Cc1cc(-c2c(-c3ccc(C)o3)nc(N)n3nc(C#N)nc23)cc(C(F)(F)F)n1` [Example C-74], for which the negative logarithm of the IC50 (pIC50) is 8.76.

`Cc1cc(-c2c(-c3ccc(F)cc3)nc(N)n3nc(C(C)(C)O)nc23)cc(C(F)(F)F)n1` [Example C-75]: the pIC50 is 8.69.

Take `Cc1cc(-c2c(-c3ccc(F)cc3)nc(N)n3nc(C#N)nc23)cc(C(F)(F)F)n1` [Example C-76]: the pIC50 was 8.25.

Turning to `CC(C)(O)c1nc2c(-c3cc(Cl)nc(C(F)(F)F)c3)c(-c3ccc(F)cc3)nc(N)n2n1` [Example C-77], the negative logarithm of the IC50 (pIC50) was 8.16.

For the molecule `Cc1cc(-c2c(-c3ccc(F)cc3)nc(N)n3nc(C(C)(C)O)nc23)cc(Cl)n1` [Example C-78], the negative-log IC50 (pIC50) was 9.11.

With `N#Cc1nc2c(-c3cc(Cl)nc(C(F)(F)F)c3)c(-c3ccc(F)cc3)nc(N)n2n1` [Example C-79], the negative-log IC50 (pIC50) was 7.77.

On to `Cc1cc(-c2c(-c3ccccc3)nc(N)n3nc(C(=O)O)nc23)cc(C(F)(F)F)n1` [Example C-80], for which the pIC50 was 8.74.
